Data: patent publication US20250230193A1, “CYCLIC COMPOUND HAVING SELECTIVE KRAS INHIBITORY EFFECT ON HRAS AND NRAS” (CHUGAI SEIYAKU KABUSHIKI KAISHA, priority 2022, published 2025)
*1 amine or outer side, *2 acyl side, *3 side chain or, on linkers, in order; H or OH if unused. Where a SMILES comes first, the peptide text is derived from it. Bridges are numbered along the chain shown (N, C = ends). [ ]: non-standard residue; d: D form. The star is where a group is joined. hPhe(3,5-F2-4-CF3) = N[C@@H](CCc1cc(F)c(C(F)(F)F)c(F)c1)C(=O)O; hPhe(3-Cl-4-CF3) = N[C@@H](CCc1ccc(C(F)(F)F)c(Cl)c1)C(=O)O; NPrPhe(4-CF3) = CCCN[C@@H](Cc1ccc(C(F)(F)F)cc1)C(=O)O; NMeGly(cPent) = CN[C@H](C(=O)O)C1CCCC1; Pro(4,4-F2) = O=C(O)[C@@H]1CC(F)(F)CN1; X13 = CCC[C@](C)(N[*:1])C(=O)[*:2]; NMeD = CN[C@@H](CC(=O)O)C(=O)O; NMeL = CN[C@@H](CC(C)C)C(=O)O; Morpholide = C1CN(*)CCO1; Ac5c = NC1(C(=O)O)CCCC1; Aze = O=C(O)[C@@H]1CCN1; NEtG = CCNCC(=O)O; Sar = CNCC(=O)O

How the values were obtained:
[1] = target: GDP-bound NRAS wild-type protein (Homo sapiens, UniProt P01111); assay: Binding to NRAS by surface plasmon resonance (SPR), Single Cycle Kinetics; details: SPR
[2] = target: GDP-bound HRAS wild-type protein (Homo sapiens, UniProt P01112); assay: Binding to HRAS by surface plasmon resonance (SPR), Single Cycle Kinetics; details: SPR
[3] = KD ratio, GDP-bound NRAS wild-type vs GDP-bound KRAS wild-type
[4] = KD ratio, GDP-bound HRAS wild-type vs GDP-bound KRAS wild-type

GDP-bound NRAS wild-type protein, sequence (P01111 whole entry): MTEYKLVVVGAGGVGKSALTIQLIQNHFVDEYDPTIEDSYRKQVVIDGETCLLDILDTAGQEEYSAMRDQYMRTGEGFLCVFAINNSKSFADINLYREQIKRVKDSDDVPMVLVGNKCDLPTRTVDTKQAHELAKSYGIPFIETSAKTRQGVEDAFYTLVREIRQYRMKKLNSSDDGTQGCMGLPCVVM
GDP-bound HRAS wild-type protein, sequence (P01112 whole entry): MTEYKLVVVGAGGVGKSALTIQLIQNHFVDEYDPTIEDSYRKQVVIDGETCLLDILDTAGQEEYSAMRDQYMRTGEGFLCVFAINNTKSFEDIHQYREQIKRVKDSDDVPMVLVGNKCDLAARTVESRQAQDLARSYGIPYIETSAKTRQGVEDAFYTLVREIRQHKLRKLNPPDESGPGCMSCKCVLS

For `C#CC[C@H]1C(=O)N[C@@H]([C@@H](C)CC)C(=O)N(C)CC(=O)N(C)[C@H]2C/C=C\CCN(C2=O)[C@@H](Cc2ccc(C(F)(F)F)cc2)C(=O)N(C)CC(=O)N[C@@H](CCc2ccc(C(F)(F)F)c(OC)c2)C(=O)N2C[C@@H](C)C[C@H]2C(=O)NC2(CCC2)C(=O)N(C)[C@@H](C2CCCC2)C(=O)N(C)[C@H](C(=O)N(C)CCC)CC(=O)N1C` [PP2063], the “NRAS/KRAS (ratio of KD value with respect to NRAS to KD value with respect to KRAS)” value ([1]; GDP-bound NRAS wild-type vs GDP-bound KRAS wild-type) was “AA (a compound having 20 or more is denoted as AA)” and the “HRAS/KRAS (ratio of KD value with respect to HRAS to KD value with respect to KRAS)” value ([2]; GDP-bound HRAS wild-type vs GDP-bound KRAS wild-type) was “A (a compound having 10 or more and less than 20 is denoted as A)”.
`CCC[C@H]1C(=O)N[C@@H]([C@@H](C)CC)C(=O)N(C)CC(=O)N(C)[C@H]2C/C=C\CCN(C2=O)[C@@H](Cc2ccc(C)cc2)C(=O)N(C)CC(=O)N[C@@H](CCc2ccc(C(F)(F)F)c(OC)c2)C(=O)N2C[C@H](C)C[C@H]2C(=O)NC2(CC(C)(C)C2)C(=O)N(C)[C@@H](C2CCCC2)C(=O)N(C)[C@H](C(=O)N(C)C)CC(=O)N1C` [PP1890] was tested, and the “NRAS/KRAS (ratio of KD value for NRAS to KD value for KRAS)” value [1, 3] was “A (a compound having 10 or more and less than 20 is denoted as A)” and the “HRAS/KRAS (ratio of KD value for HRAS to KD value for KRAS)” value [2, 4] was “B (a compound having 3 or more and less than 10 is denoted as B)”.
For `CCCN1C(=O)CN(C)C(=O)CN(CC)C(=O)[C@H]([C@@H](C)CC)NC(=O)[C@H](CC(C)C)N(C)C(=O)C[C@@H](C(=O)N2CCOCC2)N(C)C(=O)[C@H](C2CCCC2)N(C)C(=O)C2(CCCC2)NC(=O)[C@@H]2CC(F)(F)CN2C(=O)[C@H](CCc2ccc(C(F)(F)F)c(Cl)c2)NC(=O)CN(C)C(=O)[C@@H]1Cc1ccc(C(F)(F)F)cc1` [PP0399] ([NMeL]I[NEtG][Sar][NPrPhe(4-CF3)][Sar][hPhe(3-Cl-4-CF3)][Pro(4,4-F2)][Ac5c][NMeGly(cPent)][NMeD]-Morpholide; lactam N-11), the “NRAS/KRAS (ratio of KD for GDP-bound NRAS wild-type to KD for KRAS)” value ([1]; KD ratio NRAS/KRAS) was “B (a compound having 3 or more and less than 10 is denoted as B)” and the “HRAS/KRAS (ratio of KD for GDP-bound HRAS wild-type to KD for KRAS)” value ([2]; KD ratio HRAS/KRAS) was “C (A compound having a KD ratio of 0.1 or more and less than 3 is denoted as C)”.
In the case of `CCO[C@@H]1C[C@H]2C(=O)NC3(CC=CC3)C(=O)N(C)[C@@H](C3CCCC3)C(=O)N(CC)[C@H](C(=O)N3CCOCC3)CC(=O)N(C)[C@@H](CC(C)C)C(=O)N[C@@H]([C@@H](C)CC)C(=O)N(C)CC(=O)N(C)[C@H]3CCCCCN(C3=O)[C@@H](Cc3ccc(C(F)(F)F)cc3)C(=O)N(C)CC(=O)N[C@@H](CCc3cc(F)c(C(F)(F)F)c(F)c3)C(=O)N2C1` [PP0956], the “NRAS/KRAS (ratio of KD value with respect to NRAS to KD value with respect to KRAS)” value [1, 3] is reported as “A (a compound having 10 or more and less than 20 is denoted as A)” and the “HRAS/KRAS (ratio of KD value with respect to HRAS to KD value with respect to KRAS)” value [2, 4] is reported as “A (a compound having 10 or more and less than 20 is denoted as A)”.
For `CCCN1C(=O)[C@@H]2CCN2C(=O)CN(C)C(=O)[C@H]([C@@H](C)CC)NC(=O)[C@H](CC(C)C)N(C)C(=O)C[C@@H](C(=O)N2CCOCC2)N(C)C(=O)[C@H](C2CCCC2)N(C)C(=O)[C@](C)(CCC)NC(=O)[C@@H]2CCCN2C(=O)[C@H](CCc2cc(F)c(C(F)(F)F)c(F)c2)NC(=O)CN(C)C(=O)[C@@H]1Cc1ccc(C(F)(F)F)cc1` [PP0794] ([NMeL]I[Sar][Aze][NPrPhe(4-CF3)][Sar][hPhe(3,5-F2-4-CF3)]P[X13][NMeGly(cPent)][NMeD]-Morpholide; lactam N-11), the “NRAS/KRAS (ratio of KD value with respect to GDP-bound NRAS wild-type protein to KD value with respect to KRAS)” value ([1]; KD ratio NRAS/KRAS) was “C (A compound having a KD ratio of 0.1 or more and less than 3 is denoted as C)” and the “HRAS/KRAS (ratio of KD value with respect to GDP-bound HRAS wild-type protein to KD value with respect to KRAS)” value ([2]; KD ratio HRAS/KRAS) was “B (a compound having 3 or more and less than 10 is denoted as B)”.
With `CCO[C@@H]1C[C@H]2C(=O)NC3(CCC3)C(=O)N(C)[C@@H](C3CCCC3)C(=O)N(C)[C@H](C(=O)N3CCOCC3)CC(=O)N(C)[C@@H](Cc3ccccc3C)C(=O)N[C@@H]([C@@H](C)CC)C(=O)N(C)CC(=O)N(C)[C@H]3CCCCCN(C3=O)[C@@H](Cc3ccc(C(F)(F)F)cc3)C(=O)N(C)CC(=O)N[C@@H](CCc3cc(F)c(C(F)(F)F)c(F)c3)C(=O)N2C1` [PP0931] the “NRAS/KRAS (ratio of KD value with respect to NRAS to KD value with respect to KRAS)” value [1, 3] was “A (a compound having 10 or more and less than 20 is denoted as A)” and the “HRAS/KRAS (ratio of KD value with respect to HRAS to KD value with respect to KRAS)” value [2, 4] was “B (a compound having 3 or more and less than 10 is denoted as B)”.
For `CCO[C@@H]1C[C@H]2C(=O)N(C)C3(CC(C)(C)C3)C(=O)N(C)[C@@H](C3CCCC3)C(=O)N(C)[C@H](C(=O)N(C)C)CC(=O)N(C)[C@H]3CCC/C=C/c4ccc(cc4)C[C@@H](C(=O)N(C)CC(=O)N[C@@H](CCc4ccc(Cl)c(Cl)c4)C(=O)N2C1)N1CC/C=C\C[C@@H](C1=O)N(C)C(=O)CN(C)C(=O)[C@H]([C@@H](C)CC)NC3=O` [PP3059], the “NRAS/KRAS (ratio of KD value with respect to GDP-bound NRAS wild-type protein to KD value with respect to KRAS)” value ([1]; KD ratio NRAS/KRAS, GDP-bound wild-type proteins) was “A (a compound having 10 or more and less than 20 is denoted as A)” and the “HRAS/KRAS (ratio of KD value with respect to GDP-bound HRAS wild-type protein to KD value with respect to KRAS)” value ([2]; KD ratio HRAS/KRAS, GDP-bound wild-type proteins) was “A (a compound having 10 or more and less than 20 is denoted as A)”.
